The values that follow come from patent US20120295907A1, “INSECTICIDAL COMPOUNDS” (SYNGENTA CROP PROTECTION, LLC, priority 2009, published 2012).

Common to all, as to format: in vivo
For one assay, the system named is Spodoptera littoralis. Briefly: Spodoptera littoralis (Egyptian Cotton Leafworm) cotton leaf disc spray test. The note with it: foliar, 72 h, 200 ppm spray on cotton leaf discs, L1 larvae, mortality, feeding behavior, growth regulation 3 DAT.
The subject of another assay is Plutella xylostella. Briefly: Plutella xylostella (Diamond Back Moth) artificial diet MTP test. The note with it: 144 h, 200 ppm (concentration in well 18 ppm), L2 larvae, 6 days, larval mortality, growth regulation.
In another assay the test system is Heliothis virescens. The assay can be described thus: Heliothis virescens (Tobacco Budworm) egg test on artificial diet. The note with it: 96 h, 200 ppm (concentration in well 18 ppm), eggs 0-24 h old on artificial diet, 4 days, egg mortality, larval mortality, growth regulation.

SMILES strings stand for the structures.

On to `CCc1cc(C(F)(C(F)(F)F)C(F)(F)C(F)(F)F)cc(C)c1NC(=O)c1cccc(NC(=O)c2ccc(Cl)s2)c1OC` (stereo not shown) [A21], for which the pest or weed control at 200 ppm in the assay on Spodoptera littoralis, in the assay on Plutella xylostella and with Heliothis virescens was not below 80% throughout.
Take `COc1c(NC(=O)c2cc(Cl)ccc2F)cccc1C(=O)Nc1c(Cl)cc(C(F)(C(F)(F)F)C(F)(F)C(F)(F)F)cc1Br` (stereo not shown) [B10]: the pest or weed control at 200 ppm in the assay with Spodoptera littoralis, with Plutella xylostella and in the assay with Heliothis virescens was not below 80% each time.
Regarding `COc1c(NC(=O)c2ccco2)cccc1C(=O)Nc1c(Cl)cc(C(F)(C(F)(F)F)C(F)(F)C(F)(F)F)cc1Br` (stereo not shown) [B12], the pest or weed control at 200 ppm in the assay with Spodoptera littoralis, in the assay on Plutella xylostella and with Heliothis virescens was not below 80% throughout.
With `COc1c(NC(=O)c2ccccc2OC(F)(F)F)cccc1C(=O)Nc1c(Cl)cc(C(F)(C(F)(F)F)C(F)(F)C(F)(F)F)cc1Br` (stereo not shown) [B16], the pest or weed control at 200 ppm with Spodoptera littoralis and in the assay with Plutella xylostella was not below 80% each time.
As for `COc1ccccc1C(=O)Nc1cccc(C(=O)Nc2c(Cl)cc(C(F)(C(F)(F)F)C(F)(F)C(F)(F)F)cc2Br)c1OC` (stereo not shown) [B17], the pest or weed control at 200 ppm with Spodoptera littoralis and in the assay with Heliothis virescens was not below 80% in each case.
In the case of `COc1c(NC(=O)c2cc(C(F)(F)F)ccc2F)cccc1C(=O)Nc1c(Cl)cc(C(F)(C(F)(F)F)C(F)(F)C(F)(F)F)cc1Br` (stereo not shown) [B24], the pest or weed control at 200 ppm in the assay on Spodoptera littoralis is not below 80%.
On to `COc1c(NC(=O)c2ccc(-c3csnn3)cc2)cccc1C(=O)Nc1c(Cl)cc(C(F)(C(F)(F)F)C(F)(F)C(F)(F)F)cc1Br` (stereo not shown) [B31], for which the pest or weed control at 200 ppm in the assay on Spodoptera littoralis, with Plutella xylostella and in the assay on Heliothis virescens was not below 80% each time.
Take `COc1c(NC(=O)c2csnn2)cccc1C(=O)Nc1c(Cl)cc(C(F)(C(F)(F)F)C(F)(F)C(F)(F)F)cc1Br` (stereo not shown) [B39]: the pest or weed control at 200 ppm in the assay on Spodoptera littoralis, in the assay on Plutella xylostella and with Heliothis virescens was not below 80% each time.
With `COc1c(NC(=O)c2ccc(-c3ccccn3)s2)cccc1C(=O)Nc1c(Cl)cc(C(F)(C(F)(F)F)C(F)(F)C(F)(F)F)cc1Br` (stereo not shown) [B48], the pest or weed control at 200 ppm in the assay on Spodoptera littoralis, with Plutella xylostella and in the assay on Heliothis virescens was not below 80% throughout.
In the assay with Plutella xylostella, `COc1c(NC(=O)c2sccc2Br)cccc1C(=O)Nc1c(Cl)cc(C(F)(C(F)(F)F)C(F)(F)C(F)(F)F)cc1Br` (stereo not shown) [B57] showed a pest or weed control at 200 ppm not below 80%.
`COc1c(NC(=O)c2cc(Cl)cc(I)c2)cccc1C(=O)Nc1c(Cl)cc(C(F)(C(F)(F)F)C(F)(F)C(F)(F)F)cc1Br` (stereo not shown) [B68]: the pest or weed control at 200 ppm in the assay with Spodoptera littoralis and in the assay with Heliothis virescens was not below 80% in each case.
As to `COc1c(NC(=O)c2cc(Cl)cc(C(F)(F)F)c2)cccc1C(=O)Nc1c(Cl)cc(C(F)(C(F)(F)F)C(F)(F)C(F)(F)F)cc1Br` (stereo not shown) [B70], the pest or weed control at 200 ppm with Spodoptera littoralis and with Heliothis virescens was not below 80% each time.
With `COc1c(NC(=O)c2ncccn2)cccc1C(=O)Nc1c(Cl)cc(C(F)(C(F)(F)F)C(F)(F)C(F)(F)F)cc1Br` (stereo not shown) [B71], the pest or weed control at 200 ppm in the assay with Spodoptera littoralis and in the assay with Plutella xylostella was not below 80% throughout.
With `COc1c(NC(=O)c2ccc(F)c([N+](=O)[O-])c2)cccc1C(=O)Nc1c(Cl)cc(C(F)(C(F)(F)F)C(F)(F)C(F)(F)F)cc1Br` (stereo not shown) [B77], the pest or weed control at 200 ppm in the assay with Spodoptera littoralis, with Plutella xylostella and in the assay on Heliothis virescens was not below 80% in each case.
`COc1c(NC(=O)c2sccc2C)cccc1C(=O)Nc1c(Cl)cc(C(F)(C(F)(F)F)C(F)(F)C(F)(F)F)cc1Br` (stereo not shown) [B88]: the pest or weed control at 200 ppm with Spodoptera littoralis, in the assay on Plutella xylostella and with Heliothis virescens was not below 80% each time.
As to `COc1c(NC(=O)c2ocnc2C)cccc1C(=O)Nc1c(Cl)cc(C(F)(C(F)(F)F)C(F)(F)C(F)(F)F)cc1Br` (stereo not shown) [B94], the pest or weed control at 200 ppm with Spodoptera littoralis, in the assay with Plutella xylostella and in the assay with Heliothis virescens was not below 80% throughout.
On to `COCc1nc(C)c(C(=O)Nc2cccc(C(=O)Nc3c(Cl)cc(C(F)(C(F)(F)F)C(F)(F)C(F)(F)F)cc3Br)c2OC)s1` (stereo not shown) [B95], for which the pest or weed control at 200 ppm in the assay on Spodoptera littoralis, in the assay on Plutella xylostella and in the assay on Heliothis virescens was not below 80% in each case.
As for `COc1c(NC(=O)c2cc([N+](=O)[O-])c(Cl)cc2F)cccc1C(=O)Nc1c(Cl)cc(C(F)(C(F)(F)F)C(F)(F)C(F)(F)F)cc1Br` (stereo not shown) [B102], the pest or weed control at 200 ppm in the assay on Spodoptera littoralis, in the assay with Plutella xylostella and in the assay on Heliothis virescens was not below 80% in each case.
With `COc1c(NC(=O)c2sc(Cl)nc2C)cccc1C(=O)Nc1c(Cl)cc(C(F)(C(F)(F)F)C(F)(F)C(F)(F)F)cc1Br` (stereo not shown) [B105], the pest or weed control at 200 ppm with Spodoptera littoralis and with Plutella xylostella was not below 80% throughout.
`COc1c(NC(=O)c2ccc(S(C)(=O)=O)c(OC)c2Cl)cccc1C(=O)Nc1c(Cl)cc(C(F)(C(F)(F)F)C(F)(F)C(F)(F)F)cc1Br` (stereo not shown) [B114]: the pest or weed control at 200 ppm in the assay with Spodoptera littoralis, in the assay with Plutella xylostella and with Heliothis virescens was not below 80% each time.
Take `COc1c(NC(=O)c2ncc(C(F)(F)F)cc2Cl)cccc1C(=O)Nc1c(Cl)cc(C(F)(C(F)(F)F)C(F)(F)C(F)(F)F)cc1Br` (stereo not shown) [B141]: the pest or weed control at 200 ppm in the assay with Spodoptera littoralis, with Plutella xylostella and in the assay on Heliothis virescens was not below 80% throughout.
As to `COc1c(NC(=O)c2c(C)nn(C)c2Cl)cccc1C(=O)Nc1c(Cl)cc(C(F)(C(F)(F)F)C(F)(F)C(F)(F)F)cc1Br` (stereo not shown) [B142], the pest or weed control at 200 ppm with Spodoptera littoralis was not below 80%.
As for `COc1c(NC(=O)c2csc(Cl)c2OC)cccc1C(=O)Nc1c(Cl)cc(C(F)(C(F)(F)F)C(F)(F)C(F)(F)F)cc1Br` (stereo not shown) [B147], in the assay on Spodoptera littoralis, the pest or weed control at 200 ppm was not below 80%.
Consider `COc1c(NC(=O)c2cc([N+](=O)[O-])ccc2F)cccc1C(=O)Nc1c(Cl)cc(C(F)(C(F)(F)F)C(F)(F)C(F)(F)F)cc1Br` (stereo not shown) [B148], for which the pest or weed control at 200 ppm with Spodoptera littoralis, in the assay with Plutella xylostella and with Heliothis virescens was not below 80% in each case.
Consider `COc1c(NC(=O)c2cn(C)nc2C(F)(F)F)cccc1C(=O)Nc1c(Cl)cc(C(F)(C(F)(F)F)C(F)(F)C(F)(F)F)cc1Br` (stereo not shown) [B152], for which the pest or weed control at 200 ppm in the assay with Spodoptera littoralis, in the assay with Plutella xylostella and with Heliothis virescens was not below 80% each time.
Take `COc1c(NC(=O)c2c(C)noc2C)cccc1C(=O)Nc1c(Cl)cc(C(F)(C(F)(F)F)C(F)(F)C(F)(F)F)cc1Br` (stereo not shown) [B157]: the pest or weed control at 200 ppm in the assay with Spodoptera littoralis and with Heliothis virescens was not below 80% throughout.
The compound `COc1c(NC(=O)c2cc(Cl)cc(Cl)c2O)cccc1C(=O)Nc1c(Cl)cc(C(F)(C(F)(F)F)C(F)(F)C(F)(F)F)cc1Br` (stereo not shown) [B160] displayed a pest or weed control at 200 ppm with Plutella xylostella not below 80%.
On the same count and under the same terms, the result for `COc1cccc(OC)c1C(=O)Nc1cccc(C(=O)Nc2c(Cl)cc(C(F)(C(F)(F)F)C(F)(F)C(F)(F)F)cc2Br)c1OC` (stereo not shown) [B164] reads not below 80%.
Regarding `COc1c(NC(=O)c2ccc(C)cc2Cl)cccc1C(=O)Nc1c(Cl)cc(C(F)(C(F)(F)F)C(F)(F)C(F)(F)F)cc1Br` (stereo not shown) [B182], the pest or weed control at 200 ppm with Spodoptera littoralis, in the assay on Plutella xylostella and in the assay on Heliothis virescens was not below 80% each time.
`COc1c(NC(=O)c2cc(Cl)sc2Cl)cccc1C(=O)Nc1c(Cl)cc(C(F)(C(F)(F)F)C(F)(F)C(F)(F)F)cc1Br` (stereo not shown) [B186] returned a pest or weed control at 200 ppm with Spodoptera littoralis not below 80%.
Turning to `COc1c(NC(=O)c2ncccc2C(F)(F)F)cccc1C(=O)Nc1c(Cl)cc(C(F)(C(F)(F)F)C(F)(F)C(F)(F)F)cc1Br` (stereo not shown) [B188], the pest or weed control at 200 ppm with Spodoptera littoralis and in the assay on Heliothis virescens was not below 80% throughout.
With `COc1c(NC(=O)c2ccccc2OC(F)(F)F)cccc1C(=O)Nc1c(Cl)cc(C(F)(C(F)(F)F)C(F)(F)C(F)(F)F)cc1Cl` (stereo not shown) [C16], the pest or weed control at 200 ppm with Heliothis virescens is not below 80%.
On to `COc1ccccc1C(=O)Nc1cccc(C(=O)Nc2c(Cl)cc(C(F)(C(F)(F)F)C(F)(F)C(F)(F)F)cc2Cl)c1OC` (stereo not shown) [C17], for which the pest or weed control at 200 ppm in the assay with Heliothis virescens is not below 80%.
Consider `COc1c(NC(=O)c2ccco2)cccc1C(=O)Nc1c(Cl)cc(C(F)(C(F)(F)F)C(F)(F)F)cc1Cl` [E10], for which the pest or weed control at 200 ppm in the assay with Spodoptera littoralis, in the assay on Plutella xylostella and in the assay with Heliothis virescens was not below 80% in each case.
As for `COc1c(NC(=O)c2ccccc2OC(F)(F)F)cccc1C(=O)Nc1c(Cl)cc(C(F)(C(F)(F)F)C(F)(F)F)cc1Cl` [E14], the pest or weed control at 200 ppm in the assay with Spodoptera littoralis, with Plutella xylostella and with Heliothis virescens was not below 80% in each case.
Consider `COc1ccccc1C(=O)Nc1cccc(C(=O)Nc2c(Cl)cc(C(F)(C(F)(F)F)C(F)(F)F)cc2Cl)c1OC` [E15], for which the pest or weed control at 200 ppm in the assay with Spodoptera littoralis, in the assay with Plutella xylostella and in the assay with Heliothis virescens was not below 80% in each case.
For the compound `COc1c(NC(=O)c2ccccc2C)cccc1C(=O)Nc1c(C)cc(C(F)(C(F)(F)F)C(F)(F)C(F)(F)F)cc1C` (stereo not shown) [F2], the pest or weed control at 200 ppm in the assay with Spodoptera littoralis, in the assay on Plutella xylostella and in the assay on Heliothis virescens was not below 80% throughout.
Regarding `COc1c(NC(=O)c2ccco2)cccc1C(=O)Nc1c(C)cc(C(F)(C(F)(F)F)C(F)(F)C(F)(F)F)cc1C` (stereo not shown) [F4], the pest or weed control at 200 ppm in the assay on Spodoptera littoralis, in the assay on Plutella xylostella and with Heliothis virescens was not below 80% in each case.
`COc1c(NC(=O)c2cccc(C)c2C)cccc1C(=O)Nc1c(C)cc(C(F)(C(F)(F)F)C(F)(F)C(F)(F)F)cc1C` (stereo not shown) [F11]: the pest or weed control at 200 ppm in the assay on Plutella xylostella was not below 80%.
For the compound `COc1c(NC(=O)c2ccc(Cl)cc2F)cccc1C(=O)Nc1c(C)cc(C(F)(C(F)(F)F)C(F)(F)C(F)(F)F)cc1C` (stereo not shown) [F13], the pest or weed control at 200 ppm with Spodoptera littoralis and in the assay with Heliothis virescens was not below 80% throughout.
